According to PMC5626965, “Bifidobacterium bifidum Extracellular Sialidase Enhances Adhesion to the Mucosal Surface and Supports Carbohydrate Assimilation” (mBio, 2017):

Legend:
[1] = target: T1, His-Sia (sialidase domain of SiaBb2, aa 187 to 553) (Bifidobacterium bifidum, UniProt A0A1Y1C8G4); assay: SPR, His-Sia immobilized on CM5 chip; conditions: HBS-EP pH 7.4, 25°C; binding decreased by 5 mM Neu5Ac2en; also glycoarray positive
T1 construct: conserved sialidase domain aa 187-553 of 835 aa precursor; N-terminal 6xHis tag; recombinant; biotinylated for glycoarray, immobilized on CM5 chip for SPR; GH33

His-SiaBb1 = target: T2, His-SiaBb1 (Bifidobacterium bifidum, UniProt A0ABM7ET56); assay: fluorescence sialidase assay; assay type: biochemical; conditions: 50 μM recombinant protein, 30 min
T2 construct: gene BBBF_1779; His-tagged; native precursor 1,795 aa with Sec signal and C-terminal TM

His-SiaBb2 = target: T3, His-SiaBb2 (Bifidobacterium bifidum, UniProt A0A1Y1C8G4); assay: inhibition of sialidase activity, dose response; assay type: biochemical; conditions: maximal inhibition at […]
T3 construct: gene sia2; N-terminal 6xHis tag; native precursor 835 aa with Sec signal and C-terminal TM
T3 sequence (A0A1Y1C8G4 37-810): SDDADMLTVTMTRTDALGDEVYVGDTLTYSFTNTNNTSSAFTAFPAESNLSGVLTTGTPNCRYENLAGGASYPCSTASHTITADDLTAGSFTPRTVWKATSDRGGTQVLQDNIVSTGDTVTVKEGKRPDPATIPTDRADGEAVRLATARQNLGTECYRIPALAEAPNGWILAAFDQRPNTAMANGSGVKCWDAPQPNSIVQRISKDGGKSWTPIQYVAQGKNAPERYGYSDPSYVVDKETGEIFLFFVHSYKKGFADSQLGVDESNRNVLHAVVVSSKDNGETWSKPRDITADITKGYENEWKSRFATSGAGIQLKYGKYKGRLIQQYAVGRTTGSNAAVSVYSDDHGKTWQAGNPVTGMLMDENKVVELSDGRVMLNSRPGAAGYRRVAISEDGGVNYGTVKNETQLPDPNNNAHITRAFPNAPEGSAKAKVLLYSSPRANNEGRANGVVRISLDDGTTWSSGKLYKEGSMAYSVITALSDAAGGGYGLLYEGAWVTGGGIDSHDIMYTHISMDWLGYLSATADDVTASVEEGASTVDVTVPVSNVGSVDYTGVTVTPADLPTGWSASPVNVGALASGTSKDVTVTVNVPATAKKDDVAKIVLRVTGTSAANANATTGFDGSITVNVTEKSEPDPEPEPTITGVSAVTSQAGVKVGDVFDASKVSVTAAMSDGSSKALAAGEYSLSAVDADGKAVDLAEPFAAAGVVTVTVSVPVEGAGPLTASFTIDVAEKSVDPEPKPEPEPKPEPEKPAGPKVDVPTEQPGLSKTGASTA

T2 sequence (A0ABM7ET56 40-1795 limits assumed): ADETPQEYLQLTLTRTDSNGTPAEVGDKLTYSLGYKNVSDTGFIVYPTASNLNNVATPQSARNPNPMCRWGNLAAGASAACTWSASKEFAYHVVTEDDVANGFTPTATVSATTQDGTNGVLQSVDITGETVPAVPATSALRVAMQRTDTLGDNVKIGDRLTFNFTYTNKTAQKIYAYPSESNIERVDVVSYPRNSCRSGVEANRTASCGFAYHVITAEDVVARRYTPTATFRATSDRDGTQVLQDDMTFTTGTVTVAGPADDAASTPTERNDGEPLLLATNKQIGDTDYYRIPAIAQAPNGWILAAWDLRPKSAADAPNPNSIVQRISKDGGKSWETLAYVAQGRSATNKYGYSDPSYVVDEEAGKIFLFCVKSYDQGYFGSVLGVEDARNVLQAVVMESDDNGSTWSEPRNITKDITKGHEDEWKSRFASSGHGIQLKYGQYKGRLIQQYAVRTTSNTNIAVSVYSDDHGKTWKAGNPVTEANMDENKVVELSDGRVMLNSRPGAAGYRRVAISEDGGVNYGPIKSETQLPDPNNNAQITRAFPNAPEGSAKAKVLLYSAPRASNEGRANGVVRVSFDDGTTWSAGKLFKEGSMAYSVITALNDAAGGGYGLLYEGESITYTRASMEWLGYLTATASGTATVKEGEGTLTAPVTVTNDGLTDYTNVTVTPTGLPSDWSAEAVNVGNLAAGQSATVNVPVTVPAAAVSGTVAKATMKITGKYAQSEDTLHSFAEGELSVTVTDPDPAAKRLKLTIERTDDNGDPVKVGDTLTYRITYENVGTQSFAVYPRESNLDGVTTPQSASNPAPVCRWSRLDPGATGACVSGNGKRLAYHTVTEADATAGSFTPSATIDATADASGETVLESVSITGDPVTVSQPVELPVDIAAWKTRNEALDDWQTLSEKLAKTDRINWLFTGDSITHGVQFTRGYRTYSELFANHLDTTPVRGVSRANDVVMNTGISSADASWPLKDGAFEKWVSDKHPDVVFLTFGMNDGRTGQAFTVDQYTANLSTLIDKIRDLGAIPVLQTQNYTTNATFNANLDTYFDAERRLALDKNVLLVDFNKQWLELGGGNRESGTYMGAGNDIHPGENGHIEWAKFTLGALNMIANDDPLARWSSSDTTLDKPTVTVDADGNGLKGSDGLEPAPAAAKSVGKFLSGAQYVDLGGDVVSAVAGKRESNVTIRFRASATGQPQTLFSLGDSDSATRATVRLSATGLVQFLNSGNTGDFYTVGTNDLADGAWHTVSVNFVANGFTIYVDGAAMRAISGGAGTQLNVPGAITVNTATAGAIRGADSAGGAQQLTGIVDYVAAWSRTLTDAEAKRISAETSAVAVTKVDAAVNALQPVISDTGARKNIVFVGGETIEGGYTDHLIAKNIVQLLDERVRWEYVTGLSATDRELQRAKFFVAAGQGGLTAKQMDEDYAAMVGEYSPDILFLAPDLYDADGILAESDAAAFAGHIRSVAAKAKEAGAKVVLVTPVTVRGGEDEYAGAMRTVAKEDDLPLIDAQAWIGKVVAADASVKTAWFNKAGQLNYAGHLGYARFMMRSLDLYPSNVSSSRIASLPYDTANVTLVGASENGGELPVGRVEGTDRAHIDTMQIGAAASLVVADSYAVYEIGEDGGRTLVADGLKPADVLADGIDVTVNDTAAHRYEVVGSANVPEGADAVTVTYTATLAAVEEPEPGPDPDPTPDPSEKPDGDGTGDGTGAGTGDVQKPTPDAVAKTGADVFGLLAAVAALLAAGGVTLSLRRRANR

CC(=O)N[C@H]1[C@H]([C@H](O)[C@H](O)CO)O[C@@](OC[C@H]2O[C@@H](O[C@H]3[C@H](O)[C@@H](O)C(O)O[C@@H]3CO)[C@H](O)[C@@H](O)[C@H]2O)(C(=O)O)C[C@@H]1O (stereo partly drawn) [6'SL]
MR at 10 μM (analyte/ligand, end of association) [1]: 1.3

CC(=O)N[C@H]1[C@H]([C@H](O)[C@H](O)CO)OC(Oc2ccc3c(C)cc(=O)oc3c2)(C(=O)O)C[C@@H]1O (stereo partly drawn) [4-MU-Neu5Ac, 2′-(4-methylumbelliferyl)-α-D-N-acetylneuraminic acid]
fluorescence sialidase assay (His-SiaBb1): all sialidase peptides with the exception of His-ΔSia showed time-dependent enzymatic activity

CC(=O)N[C@H]1[C@H]([C@H](O)[C@H](O)CO)OC(C(=O)O)=C[C@@H]1O [Neu5Ac2en, N-acetyl-2,3-didehydro-2-deoxyneuraminic acid]
inhibition of sialidase activity, dose response (His-SiaBb2): Neu5Ac2en treatment inhibited the sialidase activity of His-SiaBb2 in a dose-dependent manner
